pIC50: −log10 of the molar value. Values belong to the molecule of their own block, whether it stands above or below them. Activity calls are given as the source filed them. The rule behind the calls is not given here.
Legend:
[1] = Depletion of actin filaments in Potorous tridactylus PtK2 cells at IC90 by microscopy; assay type: cell-based
A-431 [2] = test: Cytotoxicity against human A431 cells after 18 hrs by MTT assay; assay type: functional, cell-based; conditions: A-431, 18 h
Botrytis cinerea = test: Antimicrobial activity against Botrytis cinerea after 1 to 2 days by agar diffusion assay; assay type: functional, organism-based
HUVEC [3] = test: Cytotoxicity against HUVEC after 18 hrs by MTT assay; assay type: functional, cell-based; conditions: Homo sapiens
[4] = Cytotoxicity against human KB3-1 cells after 18 hrs by MTT assay; assay type: functional, cell-based; conditions: KB 3-1, 18 h
A-431 [5] = test: Induction of apoptosis in human A431 cells at 10 ug/ml after 16 hrs using annexin V/propidium iodide by flow cytometry; assay type: functional, cell-based
Klebsiella pneumoniae = test: Antimicrobial activity against Klebsiella pneumoniae after 1 to 2 days by agar diffusion assay; assay type: functional, organism-based
A-431 [6] = test: Increase in ROS production in human A431 cells at after 1 hr by DCF assay; assay type: functional, cell-based
Tubulin (Sus scrofa) [7] = target: T1, Tubulin (Sus scrofa) (UniProt P02554+P02550); test: Binding affinity to pig brain tubulin after 2 hrs by DARTS-Western blot method; assay type: tissue-based
T1 sequence (P02550 whole entry, looked up): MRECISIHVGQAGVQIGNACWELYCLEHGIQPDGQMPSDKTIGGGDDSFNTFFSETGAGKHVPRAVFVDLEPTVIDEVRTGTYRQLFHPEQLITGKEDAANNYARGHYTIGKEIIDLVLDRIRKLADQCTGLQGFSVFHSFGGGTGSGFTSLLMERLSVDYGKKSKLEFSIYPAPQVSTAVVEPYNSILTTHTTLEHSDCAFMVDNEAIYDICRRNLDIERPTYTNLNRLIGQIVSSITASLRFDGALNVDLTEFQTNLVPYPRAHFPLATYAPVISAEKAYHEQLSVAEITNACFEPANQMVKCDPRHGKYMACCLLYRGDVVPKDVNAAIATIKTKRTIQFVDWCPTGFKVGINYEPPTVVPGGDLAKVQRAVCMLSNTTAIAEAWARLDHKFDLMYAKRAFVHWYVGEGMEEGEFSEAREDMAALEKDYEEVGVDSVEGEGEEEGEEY
T1 sequence (P02554 whole entry, looked up): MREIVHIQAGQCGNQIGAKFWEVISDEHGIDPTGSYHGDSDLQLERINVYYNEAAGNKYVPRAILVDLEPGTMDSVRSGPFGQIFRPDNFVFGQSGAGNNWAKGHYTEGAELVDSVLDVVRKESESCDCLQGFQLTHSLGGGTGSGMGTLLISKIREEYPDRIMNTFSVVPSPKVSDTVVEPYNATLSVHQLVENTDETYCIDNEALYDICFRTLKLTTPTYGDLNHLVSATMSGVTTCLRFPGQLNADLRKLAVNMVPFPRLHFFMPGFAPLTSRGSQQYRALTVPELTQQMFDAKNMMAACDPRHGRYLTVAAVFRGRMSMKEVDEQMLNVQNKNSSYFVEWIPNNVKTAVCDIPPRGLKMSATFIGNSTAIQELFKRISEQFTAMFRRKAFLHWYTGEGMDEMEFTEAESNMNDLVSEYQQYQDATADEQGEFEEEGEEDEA

HUVEC [8] = test: Increase in ROS production in HUVEC at after 1 hr by DCF assay; assay type: functional, cell-based; conditions: Homo sapiens
Tubulin = Tubulin (Sus scrofa, UniProt P02554+P02550); test: (§1) Inhibition of pig brain tubulin polymerization by spectrophotometry
A-431 [9] = test: Reduction in ATP level in human A431 cells assessed as cell viability after 10 mins by Cell Titer Glo luminescent assay; assay type: functional, cell-based
Aspergillus niger = test: Antimicrobial activity against Aspergillus niger after 1 to 2 days by agar diffusion assay; assay type: functional, organism-based
HUVEC [10] = test: Increase in ROS production in HUVEC at after 1 hr by DHE assay; assay type: functional, cell-based; conditions: Homo sapiens
Oryctolagus cuniculus [11] = species: Oryctolagus cuniculus; test: Binding affinity to rabbit actin polymerization at IC90 after 2 hrs by DARTS-Western blot method
Staphylococcus aureus = test: Antimicrobial activity against Staphylococcus aureus after 1 to 2 days by agar diffusion assay; assay type: functional, organism-based
L929 = test: Cytotoxicity against mouse L929 cells after 18 hrs by MTT assay; assay type: functional, cell-based; conditions: L929, 18 h
Tubulin (Sus scrofa) [12] = target: T1, Tubulin (Sus scrofa); test: Binding affinity to pig brain tubulin at IC90 after 2 hrs by DARTS-Western blot method
Mycolicibacterium phlei = test: Antimicrobial activity against Mycobacterium phlei after 1 to 2 days by agar diffusion assay; assay type: functional, organism-based
Oryctolagus cuniculus [13] = species: Oryctolagus cuniculus; test: Binding affinity to rabbit actin polymerization after 2 hrs by DARTS-Western blot method
Escherichia coli [14] = test: Antimicrobial activity against Escherichia coli expressing tolC after 1 to 2 days by agar diffusion assay; assay type: functional, organism-based
A-431 [15] = test: Increase in ROS production in human A431 cells at after 1 hr by DHE assay; assay type: functional, cell-based
Micrococcus luteus = test: Antimicrobial activity against Micrococcus luteus after 1 to 2 days by agar diffusion assay; assay type: functional, organism-based
[16] = Depletion of microtubules in Potorous tridactylus PtK2 cells at IC90 by microscopy; assay type: cell-based
[17] = test system: Globisporangium debaryanum; test: Antimicrobial activity against Pythium debaryanum after 1 to 2 days by agar diffusion assay; assay type: functional, organism-based
[18] = Cytotoxicity against Potorous tridactylus PtK2 cells after 18 hrs by MTT assay; assay type: functional, cell-based; conditions: PtK2, 18 h
A-431 [19] = test: Induction of apoptosis in human A431 cells at 12 ug/ml after 16 hrs using annexin V/propidium iodide by flow cytometry; assay type: functional, cell-based
Pseudomonas aeruginosa = test: Antimicrobial activity against Pseudomonas aeruginosa after 1 to 2 days by agar diffusion assay; assay type: functional, organism-based
HCT-116 = test: Cytotoxicity against human HCT116 cells after 18 hrs by MTT assay; assay type: functional, cell-based; conditions: HCT-116, 18 h
Wickerhamomyces anomalus = test: Antimicrobial activity against Hansenula anomala after 1 to 2 days by agar diffusion assay; assay type: functional, organism-based
Escherichia coli [20] = test: Antimicrobial activity against Escherichia coli A1 after 1 to 2 days by agar diffusion assay; assay type: functional, organism-based
A-431 [21] = test: Induction of apoptosis in human A431 cells assessed as caspase3/7 activation at 2.6 uM after 5 to 25 mins by luminescence assay; assay type: functional, cell-based
[22] = Inhibition of rabbit actin polymerization by spectrophotometry; set-up: species or system Oryctolagus cuniculus
Oryctolagus cuniculus [23] = species: Oryctolagus cuniculus; test: Binding affinity to rabbit actin polymerization at IC50 after 2 hrs by DARTS-Western blot method
Tubulin (Sus scrofa) [24] = target: T1, Tubulin (Sus scrofa); test: Binding affinity to pig brain tubulin at IC50 after 2 hrs by DARTS-Western blot method
Tubulin (Sus scrofa) [25] = target: T1, Tubulin (Sus scrofa); test: as §1

Structure (SMILES): CC1=C([Te]c2ccccc2)C(=O)c2ccccc2C1=O
Activity [1]: Active
pIC50 (A-431 [2]): 5.30
Activity (Botrytis cinerea): Active
pIC50 (HUVEC [3]): 5.02
pIC50 [4]: 5.89
Activity (A-431 [5]): Active
Activity (Klebsiella pneumoniae): Active
Activity (A-431 [6]): Dose-dependent effect
Activity (Tubulin (Sus scrofa) [7]): Dose-dependent effect
Activity (HUVEC [8]): Dose-dependent effect
IC50 (Tubulin): 15 µM
Activity (A-431 [9]): Active
Activity (Aspergillus niger): Active
Activity (HUVEC [10]): Dose-dependent effect
Activity (Oryctolagus cuniculus [11]): Active
Activity (Staphylococcus aureus): Active
pIC50 (L929): 4.96
Activity (Tubulin (Sus scrofa) [12]): Active
Activity (Mycolicibacterium phlei): Active
Activity (Oryctolagus cuniculus [13]): Dose-dependent effect
Activity (Escherichia coli [14]): Active
Activity (A-431 [15]): Dose-dependent effect
Activity (Micrococcus luteus): Active
Activity [16]: Active
Activity [17]: Active
pIC50 [18]: 5.05
Activity (A-431 [19]): Active
Activity (Pseudomonas aeruginosa): inactive
pIC50 (HCT-116): 5.28
Activity (Wickerhamomyces anomalus): Active
Activity (Escherichia coli [20]): Active
Activity (A-431 [21]): Active
pIC50 [22]: 4.52

Activity (Oryctolagus cuniculus [23]): Active
Structure (SMILES): COC1CC(O)/C=C/C=C/C=C\C(C)C(C(C)C(O)CC(C)O)OC(=O)/C=C/C=C/C=C/C(C)=C/C(C)C(O[C@H]2O[C@H](C)[C@@H](O)[C@H](OC)[C@H]2OC)/C=C\C=C\c2coc(n2)C1C (stereo partly specified)

Structure (SMILES): CC[C@@H](C)[C@H](NC(=O)[C@H]1CCCCN1C)C(=O)N(COC(=O)CC(C)C)[C@H](C[C@@H](OC(C)=O)c1nc(C(=O)N[C@@H](Cc2ccc(O)cc2)C[C@H](C)C(=O)O)cs1)C(C)C
Activity (Tubulin (Sus scrofa) [7]): Active

Structure (SMILES): O=C1C([Te]c2ccccc2)=C([Te]c2ccccc2)C(=O)c2ccccc21
Activity [1]: Active
pIC50 (A-431 [2]): 5.36
Activity (Botrytis cinerea): Active
pIC50 (HUVEC [3]): 5.29
pIC50 [4]: 6.60
Activity (A-431 [5]): Active
Activity (Klebsiella pneumoniae): Active
Activity (A-431 [6]): Dose-dependent effect
Activity (Tubulin (Sus scrofa) [24]): inactive
Activity (HUVEC [8]): Dose-dependent effect
inhibition (Tubulin (Sus scrofa) [25]): inactive
Activity (A-431 [9]): Active
Activity (Aspergillus niger): Active
Activity (HUVEC [10]): Dose-dependent effect
Activity (Staphylococcus aureus): Active
pIC50 (L929): 5.24
Activity (Oryctolagus cuniculus [23]): Active
Activity (Mycolicibacterium phlei): Active
Activity (Escherichia coli [14]): Active
Activity (A-431 [15]): Dose-dependent effect
Activity (Micrococcus luteus): Active
Activity [16]: inactive
Activity [17]: Active
pIC50 [18]: 5.14
Activity (A-431 [19]): Active
Activity (Pseudomonas aeruginosa): inactive
pIC50 (HCT-116): 5.27
Activity (Wickerhamomyces anomalus): Active
Activity (Escherichia coli [20]): Active
Activity (A-431 [21]): Active
pIC50 [22]: 4.52
